Assay results published in patent publication US6461997B1, “Triazole sulfones having herbicidal activity” (Monsanto Technology LLC, priority 1999, dated 2002).

Tests used:
[1] = tested on: CHEAL (common lambsquarters); assay: Pre-emergence herbicidal activity, warm season; format: in vivo, Chenopodium album; conditions: GR80 = lowest tested rate (300, 100, 30, 10 g/ha) with 80% or greater inhibition; approx. 14 days after treating; 30/21° C.
Summary of the method: (§1)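 Seeds sown in sterilised fertilised topsoil received surface-applied compound in 50:50 acetone/water, typically at 300, 100, 30 and 10 g/ha, then greenhouse-grown at 30/21° C (warm-season species) or 18/13° C (cool-season species). Percent inhibition versus untreated plants was scored at about 14 days, giving GR80; an asterisk marks activity short of 80% at the top rate.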

[2] = tested on: POROL (common purslane); assay: Pre-emergence herbicidal activity, warm season; format: in vivo, Portulaca oleracea; conditions: GR80 = lowest tested rate (300, 100, 30, 10 g/ha) with 80% or greater inhibition; approx. 14 days after treating; 30/21° C.
Summary of the method: as §1

[3] = tested on: ECHCG (barnyardgrass); assay: Pre-emergence herbicidal activity, warm season; format: in vivo, Echinochloa crus-galli; conditions: GR80 = lowest tested rate (300, 100, 30, 10 g/ha) with 80% or greater inhibition; approx. 14 days after treating; 30/21° C.
Summary of the method: (§2)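 Activity is expressed as the rate giving 80% inhibition, with 300, 100, 30 and 10 g/ha typically tested. An asterisk marks activity short of 80% at the top rate. Warm-season grasses were held at 30/21 °C; cool-season blackgrass and wild buckwheat at 18/13 °C; scoring at about 14 days.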

[4] = tested on: PANMI (wild proso millet); assay: Pre-emergence herbicidal activity, warm season; format: in vivo, Panicum miliaceum; conditions: GR80 = lowest tested rate (300, 100, 30, 10 g/ha) with 80% or greater inhibition; approx. 14 days after treating; 30/21° C.
Summary of the method: (§3)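 Herbicidal efficacy was judged visually as percent inhibition compared with untreated plants some 14 days after treatment, giving GR80 over doses of 10 to 300 g/ha. Proso millet and crabgrass grew at 30/21 °C; blackgrass and wild buckwheat grew at 18/13 °C.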

[5] = tested on: SORHA (johnsongrass (seedling)); assay: Pre-emergence herbicidal activity, warm season; format: in vivo, Sorghum halepense; conditions: GR80 = lowest tested rate (300, 100, 30, 10 g/ha) with 80% or greater inhibition; approx. 14 days after treating; 30/21° C.
Summary of the method: as §2

[6] = tested on: SETFA (giant foxtail); assay: Pre-emergence herbicidal activity, warm season; format: in vivo, Setaria faberi; conditions: GR80 = lowest tested rate (300, 100, 30, 10 g/ha) with 80% or greater inhibition; approx. 14 days after treating; 30/21° C.
Summary of the method: as §2

[7] = tested on: SORVU (shattercane); assay: Pre-emergence herbicidal activity, warm season; format: in vivo, Sorghum vulgare; conditions: GR80 = lowest tested rate (300, 100, 30, 10 g/ha) with 80% or greater inhibition; approx. 14 days after treating; 30/21° C.
Summary of the method: as §2

[8] = tested on: BRAPP (broadleaf signalgrass); assay: Pre-emergence herbicidal activity, warm season; format: in vivo, Brachiaria platyphylla; conditions: GR80 = lowest tested rate (300, 100, 30, 10 g/ha) with 80% or greater inhibition; approx. 14 days after treating; 30/21° C.
Summary of the method: as §2

[9] = tested on: DIGSA (large crabgrass); assay: Pre-emergence herbicidal activity, warm season; format: in vivo, Digitaria sanguinalis; conditions: GR80 = lowest tested rate (300, 100, 30, 10 g/ha) with 80% or greater inhibition; approx. 14 days after treating; 30/21° C.
Summary of the method: as §3

[10] = tested on: GALAP (catchweed bedstraw); assay: Pre-emergence herbicidal activity, cool season; format: in vivo, Galium aparine; conditions: lowest tested rate with 80% or greater inhibition; rates 300, 100, 30, 10 g/ha; about 14 days
Summary of the method: as §1

[11] = tested on: POLCO (wild buckwheat); assay: Pre-emergence herbicidal activity, cool season; format: in vivo, Polygonum convolvulus; conditions: lowest tested rate with 80% or greater inhibition; rates 300, 100, 30, 10 g/ha; about 14 days
Summary of the method: as §3

[12] = tested on: SINAR (wild mustard); assay: Pre-emergence herbicidal activity, cool season; format: in vivo, Sinapis arvensis; conditions: lowest tested rate with 80% or greater inhibition; rates 300, 100, 30, 10 g/ha; about 14 days
Summary of the method: as §1

[13] = tested on: VERPE (creeping speedwell); assay: Pre-emergence herbicidal activity, cool season; format: in vivo, Veronica persicaria; conditions: lowest tested rate with 80% or greater inhibition; rates 300, 100, 30, 10 g/ha; about 14 days
Summary of the method: as §1

[14] = tested on: SASKR (russian thistle); assay: Pre-emergence herbicidal activity, cool season; format: in vivo, Salsola kali; conditions: lowest tested rate with 80% or greater inhibition; rates 300, 100, 30, 10 g/ha; about 14 days
Summary of the method: as §1

[15] = tested on: STEME (common chickweed); assay: Pre-emergence herbicidal activity, cool season; format: in vivo, Stellaria media; conditions: lowest tested rate with 80% or greater inhibition; rates 300, 100, 30, 10 g/ha; about 14 days
Summary of the method: as §1

[16] = tested on: LAMPU (purple deadnettle); assay: Pre-emergence herbicidal activity, cool season; format: in vivo, Lamium purpureum; conditions: lowest tested rate with 80% or greater inhibition; rates 300, 100, 30, 10 g/ha; about 14 days
Summary of the method: as §1

[17] = tested on: SETVI (green foxtail); assay: Pre-emergence herbicidal activity, cool season; format: in vivo, Setaria viridis; conditions: GR80 = lowest tested rate (300, 100, 30, 10 g/ha) with 80% or greater inhibition; approx. 14 days after treating; 18/13° C.
Summary of the method: as §1

[18] = tested on: LOLMG (annual ryegrass); assay: Pre-emergence herbicidal activity, cool season; format: in vivo, Lolium multiflorum; conditions: GR80 = lowest tested rate (300, 100, 30, 10 g/ha) with 80% or greater inhibition; approx. 14 days after treating; 18/13° C.
Protocol: (§4) Tables 5 to 8 summarize results of tests conducted as described below to determine the pre-emergence herbicidal activity, in the form of a GR80 value, of illustrative compounds of this invention. […] Compounds of the invention were typically applied at rates of 300, 100, 30, and 10 g/ha. Where herbicidal activity was evident but 80% inhibition was not achieved at the highest rate tested, an asterisk (*) is shown in the following tables.
(§5) The pre-emergence tests were conducted by the following procedure. Topsoil was sieved to pass through a 1.27 cm screen. Fertilizer was added to the topsoil and the mixture was then sterilized by heating. The topsoil mixture was placed in a pot and compacted to a depth of 1.0 to 1.25 cm from the top of the pot. Seeds of each of several monocotyledonous and dicotyledonous annual plant species were placed on top of the soil. Additional soil was subsequently placed over the seeds to level-fill the pot. A known amount of each test compound dissolved or suspended in an appropriate organic solvent was diluted with a 50:50 mix of acetone and water and applied to the surface of the soil. After treatment the plants were placed in a greenhouse where they received 0.64 cm of overhead irrigation. All subsequent watering consisted of a light overhead mist and/or subirrigation as needed for germination and growth. Tables 5 and 6 below relate to warm season plant species which were placed after pre-emergence treatment in a greenhouse with a 30/21° C. day/night temperature regime. Tables 7 and 8 below relates to cool season plant species placed after pre-emergence treatment in a greenhouse or growth chamber with an 18/13° C. day/night temperature regime.
(§6) Approximately 14 days after planting and treating, the plants were observed and herbicidal efficacy recorded as percent inhibition by comparison with untreated plants.
(§7) The plant species usually regarded as weeds which were utilized in the tests are identified in the tables below according to the following legend, in which “d” indicates a dicotyledonous species and “m” a monocotyledonous species. All monocotyledonous species included in the tests herein are grasses.

[19] = tested on: BROTE (downy brome); assay: Pre-emergence herbicidal activity, cool season; format: in vivo, Bromus tectorum; conditions: GR80 = lowest tested rate (300, 100, 30, 10 g/ha) with 80% or greater inhibition; approx. 14 days after treating; 18/13° C.
Protocol: as §4, §5, §6, §7

[20] = tested on: AGSST (creeping bentgrass); assay: Pre-emergence herbicidal activity, cool season; format: in vivo, Agrostis stolonifera; conditions: GR80 = lowest tested rate (300, 100, 30, 10 g/ha) with 80% or greater inhibition; approx. 14 days after treating; 18/13° C.
Summary of the method: as §1

[21] = tested on: AMARE (redroot pigweed); assay: Pre-emergence herbicidal activity, warm season; format: in vivo, Amaranthus retroflexus; conditions: GR80 = lowest tested rate (300, 100, 30, 10 g/ha) with 80% or greater inhibition; approx. 14 days after treating; 30/21° C.
Summary of the method: as §1

[22] = tested on: ALOMY (blackgrass); assay: Pre-emergence herbicidal activity, cool season; format: in vivo, Alopecurus myosuroides; conditions: GR80 = lowest tested rate (300, 100, 30, 10 g/ha) with 80% or greater inhibition; approx. 14 days after treating; 18/13° C.
Summary of the method: as §3

[23] = tested on: ABUTH (velvetleaf); assay: Pre-emergence herbicidal activity, warm season; format: in vivo, Abutilon theophrasti; conditions: GR80 = lowest tested rate (300, 100, 30, 10 g/ha) with 80% or greater inhibition; approx. 14 days after treating; 30/21° C.
Protocol: as §4, §5, §6, §7

Row | SMILES | Pre-emergence activity (GR80) PANMI [4] | Pre-emergence activity (GR80) SORVU [7] | Pre-emergence activity (GR80) DIGSA [9] | Pre-emergence activity GR80, GALAP [10] | Pre-emergence activity GR80, POLCO [11] | Pre-emergence activity GR80, SINAR [12] | Pre-emergence activity GR80, VERPE [13] | Pre-emergence activity GR80, SASKR [14] | Pre-emergence activity GR80, STEME [15] | Pre-emergence activity GR80, LAMPU [16] | Pre-emergence activity (GR80) SETVI [17] | Pre-emergence activity (GR80) LOLMG [18] | Pre-emergence activity (GR80) BROTE [19] | Pre-emergence activity (GR80) AGSST [20] | Pre-emergence activity (GR80) ALOMY [22] | also measured
1 | CCCN(CC)C(=O)n1cnc(S(=O)(=O)C(F)(F)C(F)(F)Br)n1 [Example 75] | 100 g/ha | 300 g/ha | 300 g/ha | 300 g/ha | [empty] | 30 g/ha | 10 g/ha | 10 g/ha | 30 g/ha | 30 g/ha | 30 g/ha | 300 g/ha | 300 g/ha | 30 g/ha |  | Pre-emergence activity (GR80) CHEAL [1]: 300 g/ha; Pre-emergence activity (GR80) POROL [2]: 300 g/ha; Pre-emergence activity (GR80) ECHCG [3]: 100 g/ha; Pre-emergence activity (GR80) SORHA [5]: 300 g/ha; Pre-emergence activity (GR80) SETFA [6]: 300 g/ha; Pre-emergence activity (GR80) BRAPP [8]: 300 g/ha
2 | COCCN(C)C(=O)n1cnc(S(=O)(=O)C(F)(F)Cl)n1 [Example 88] | 300 g/ha |  | 300 g/ha | 100 g/ha | 300 g/ha | 30 g/ha | 30 g/ha | 30 g/ha | 10 g/ha | 10 g/ha | 100 g/ha | 300 g/ha | 300 g/ha | 100 g/ha | 300 g/ha | Pre-emergence activity (GR80) AMARE [21]: 100 g/ha
3 | CN(C(=O)n1cnc(S(=O)(=O)C(F)(F)Cl)n1)C1CCCCC1 [Example 91] | 100 g/ha | 300 g/ha |  | 100 g/ha | 100 g/ha | 10 g/ha | 10 g/ha | 30 g/ha | 30 g/ha | 30 g/ha | 300 g/ha | 300 g/ha | 300 g/ha | 100 g/ha | 300 g/ha | Pre-emergence activity (GR80) ABUTH [23]: 300 g/ha
